The values that follow come from patent US11447505B1, “Pyrrolo[2,3-b]pyridine compounds and their use in the treatment of cancer” (priority 2017, dated 2022).

The target in one test is ROCK1 (Homo sapiens (Human), UniProt Q13464). The settings on record: read-out: ROCK1 Average Ki; 1 μM ATP.
The next test concerns the target ROCK2 (Homo sapiens (Human), UniProt O75116). The test can be described thus: ROCK2 kinase assay (IMAP fluorescence polarization). Format: biochemical. The following applies: 1 μM ATP; read-out: ROCK2 Average Ki. On the technique in general: Polarisation of emitted light reports the rotation of a fluorescent probe.
In a further test the target is MRCKβ (Homo sapiens (Human), UniProt Q9Y5S2). In words: MRCKβ kinase assay (IMAP fluorescence polarization). It counts as biochemical. The settings on record: 1 μM ATP; read-out: MRCK-B Average Ki. An excerpt: MRCKα, MRCKβ, ROCK1 and ROCK2 Kinase Assays

ROCK1, sequence (Q13464 2-1354 limits assumed): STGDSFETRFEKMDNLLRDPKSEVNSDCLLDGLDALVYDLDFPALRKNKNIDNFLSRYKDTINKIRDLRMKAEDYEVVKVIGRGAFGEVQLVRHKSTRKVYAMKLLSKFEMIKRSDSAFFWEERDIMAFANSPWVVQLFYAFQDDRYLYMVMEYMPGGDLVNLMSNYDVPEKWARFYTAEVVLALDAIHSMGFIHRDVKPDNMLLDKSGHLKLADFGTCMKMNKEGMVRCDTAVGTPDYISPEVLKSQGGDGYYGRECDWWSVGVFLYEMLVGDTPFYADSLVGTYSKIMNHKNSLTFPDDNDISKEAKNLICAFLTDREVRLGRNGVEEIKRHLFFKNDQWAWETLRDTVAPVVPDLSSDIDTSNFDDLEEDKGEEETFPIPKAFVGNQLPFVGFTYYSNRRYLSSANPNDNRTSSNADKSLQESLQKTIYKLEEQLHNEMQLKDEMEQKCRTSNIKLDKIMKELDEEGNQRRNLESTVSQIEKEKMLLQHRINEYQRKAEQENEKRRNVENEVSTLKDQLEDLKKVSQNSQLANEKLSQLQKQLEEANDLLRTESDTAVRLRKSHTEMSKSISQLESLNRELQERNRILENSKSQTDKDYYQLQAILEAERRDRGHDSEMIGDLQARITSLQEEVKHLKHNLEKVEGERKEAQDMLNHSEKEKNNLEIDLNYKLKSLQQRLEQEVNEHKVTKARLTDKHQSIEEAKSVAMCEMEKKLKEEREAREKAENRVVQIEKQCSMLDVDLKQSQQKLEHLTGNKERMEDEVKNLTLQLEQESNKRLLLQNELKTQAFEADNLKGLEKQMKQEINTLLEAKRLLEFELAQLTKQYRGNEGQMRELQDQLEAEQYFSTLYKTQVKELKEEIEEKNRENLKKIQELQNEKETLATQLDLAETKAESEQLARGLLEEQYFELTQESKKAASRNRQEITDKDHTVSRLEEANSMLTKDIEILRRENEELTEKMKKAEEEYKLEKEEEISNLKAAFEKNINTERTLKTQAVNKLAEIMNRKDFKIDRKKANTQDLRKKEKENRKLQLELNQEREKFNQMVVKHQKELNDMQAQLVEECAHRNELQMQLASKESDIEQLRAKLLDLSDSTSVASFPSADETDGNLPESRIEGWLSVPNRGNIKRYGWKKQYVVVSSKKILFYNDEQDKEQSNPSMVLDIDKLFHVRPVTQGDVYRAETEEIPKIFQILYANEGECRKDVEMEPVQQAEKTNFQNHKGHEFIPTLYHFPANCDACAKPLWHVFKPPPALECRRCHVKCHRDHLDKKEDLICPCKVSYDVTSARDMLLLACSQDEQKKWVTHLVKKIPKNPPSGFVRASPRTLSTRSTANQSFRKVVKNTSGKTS
ROCK2, sequence (O75116 whole entry): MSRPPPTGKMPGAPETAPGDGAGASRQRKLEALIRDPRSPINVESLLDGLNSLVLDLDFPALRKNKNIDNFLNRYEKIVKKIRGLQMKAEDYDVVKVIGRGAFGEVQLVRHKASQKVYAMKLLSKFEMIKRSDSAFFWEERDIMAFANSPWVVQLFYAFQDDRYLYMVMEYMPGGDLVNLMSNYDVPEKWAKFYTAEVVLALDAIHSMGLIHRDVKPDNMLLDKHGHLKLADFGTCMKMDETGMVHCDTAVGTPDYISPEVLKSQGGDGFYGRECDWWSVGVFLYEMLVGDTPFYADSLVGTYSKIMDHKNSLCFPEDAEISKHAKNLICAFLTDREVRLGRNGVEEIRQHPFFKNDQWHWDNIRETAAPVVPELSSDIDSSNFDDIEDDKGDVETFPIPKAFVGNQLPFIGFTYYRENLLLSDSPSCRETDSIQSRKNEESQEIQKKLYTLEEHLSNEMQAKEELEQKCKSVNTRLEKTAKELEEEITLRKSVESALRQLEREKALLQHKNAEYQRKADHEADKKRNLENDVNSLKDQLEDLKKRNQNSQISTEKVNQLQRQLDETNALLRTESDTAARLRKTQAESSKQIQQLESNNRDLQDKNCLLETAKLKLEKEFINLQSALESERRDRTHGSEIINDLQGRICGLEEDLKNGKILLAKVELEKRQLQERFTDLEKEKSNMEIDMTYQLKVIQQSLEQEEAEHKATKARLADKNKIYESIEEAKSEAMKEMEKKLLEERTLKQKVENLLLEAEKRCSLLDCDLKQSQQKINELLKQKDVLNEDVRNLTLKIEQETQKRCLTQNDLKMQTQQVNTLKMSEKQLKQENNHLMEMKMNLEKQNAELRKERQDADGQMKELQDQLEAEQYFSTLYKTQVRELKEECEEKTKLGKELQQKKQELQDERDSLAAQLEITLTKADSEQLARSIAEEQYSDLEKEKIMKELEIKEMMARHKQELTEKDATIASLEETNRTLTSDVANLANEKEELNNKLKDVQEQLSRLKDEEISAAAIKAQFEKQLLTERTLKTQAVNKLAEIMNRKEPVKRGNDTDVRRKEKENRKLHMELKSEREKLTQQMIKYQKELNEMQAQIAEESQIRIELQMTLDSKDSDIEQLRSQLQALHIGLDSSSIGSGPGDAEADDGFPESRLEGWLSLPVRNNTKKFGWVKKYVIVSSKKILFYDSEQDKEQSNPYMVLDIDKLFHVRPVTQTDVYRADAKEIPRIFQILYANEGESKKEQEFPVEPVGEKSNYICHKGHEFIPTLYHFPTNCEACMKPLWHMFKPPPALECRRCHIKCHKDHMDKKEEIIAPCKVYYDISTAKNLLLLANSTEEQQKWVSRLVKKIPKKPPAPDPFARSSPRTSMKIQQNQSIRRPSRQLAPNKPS
Experimental for ROCK1: MRCKα, MRCKβ, ROCK1 and ROCK2 assays were performed using an IMAP fluorescence polarization assay format (Molecular Devices Inc.). […] Typically, dose response analyses were performed over concentration ranges from 0.005-100 μM. […] After 30 min incubation to allow binding reagent to bind phosphorylated peptide, fluorescence polarization was measured on a Tecan Saphire^2 plate reader at excitation (470 nm) and emission (530 nm) wavelengths.

A word on the Ki: it is a measure of affinity in units of concentration, obtained from inhibition or displacement. As for “4-[4-(1-piperidyl)-1H-pyrrolo[2,3-b]pyridin-3-yl]pyridin-2-amine [Example E9]”, the results for the Ki on ROCK1, at ROCK2 and on MRCKβ were 1.5 nM, 1.25 nM and 0.886 nM, respectively.

On to “4-morpholino-1H-pyrrolo[2,3-b]pyridine-3-carbonitrile [Example E33]”, for which the figures for the Ki at ROCK1, at ROCK2 and at MRCKβ were 196 nM, 127 nM and 87.1 nM, respectively.

With `CN[C@H]1CCCN(c2ccnc3[nH]cc(-c4cncnc4)c23)[C@H]1C` (relative stereo) [Example E179, cis-N,2-dimethyl-1-(3-pyrimidin-5-yl-1H-pyrrolo[2,3-b]pyridin-4-yl)piperidin-3-amine], the values for the inhibition constant Ki at ROCK1, at ROCK2 and at MRCKβ were 1290 nM, 1090 nM and 128 nM, respectively.

As for `CN(C1CC1)[C@H]1CCCN(c2ccnc3[nH]cc(-c4cncnc4)c23)C1` (stereo in doubt) [Example E80], the inhibition constant Ki at ROCK1 amounted to 499 nM; at ROCK2, 228 nM; on MRCKβ, 8.3 nM.

Regarding `Cc1cnc2[nH]cc(-c3cncnc3)c2c1N1CCCCC1` [Example E1, 5-methyl-4-(1-piperidyl)-3-pyrimidin-5-yl-1H-pyrrolo[2,3-b]pyridine], the inhibition constant Ki on ROCK1 was determined as 15000 nM; at ROCK2, 6500 nM; on MRCKβ, 64.6 nM.

With `Nc1cccc(-c2c[nH]c3nccc(N4CCCCC4)c23)n1` [Example E3, 6-[4-(1-piperidyl)-1H-pyrrolo[2,3-b]pyridin-3-yl]pyridin-2-amine], the values for the inhibitory constant (Ki) at ROCK1, on ROCK2 and on MRCKβ were 28.6 nM, 13.8 nM and 39.9 nM, respectively.

On to `c1cc(-c2c[nH]c3nccc(N4CCCCC4)c23)ncn1` [Example E4, 4-(1-piperidyl)-3-pyrimidin-4-yl-1H-pyrrolo[2,3-b]pyridine], for which the Ki on ROCK1 is 28.3 nM; on ROCK2, 19.7 nM; at MRCKβ it was 15.5 nM.

Regarding `CNc1cc(-c2c[nH]c3nccc(N4CCCCC4)c23)ccn1` [Example E5, N-methyl-4-[4-(1-piperidyl)-1H-pyrrolo[2,3-b]pyridin-3-yl]pyridin-2-amine], the Ki on ROCK1 was determined as 40.8 nM; on ROCK2 it was 22.5 nM; on MRCKβ, 3.02 nM.

Take `N#Cc1cc(-c2c[nH]c3nccc(N4CCCCC4)c23)cnc1N` [Example E7, 2-amino-5-[4-(1-piperidyl)-1H-pyrrolo[2,3-b]pyridin-3-yl]pyridine-3-carbonitrile]: the values for the inhibitory constant (Ki) on ROCK1, at ROCK2 and on MRCKβ were 501 nM, 245 nM and 357 nM, respectively.

Regarding `N#Cc1cncc(-c2c[nH]c3nccc(N4CCCCC4)c23)c1` [Example E8, 5-[4-(1-piperidyl)-1H-pyrrolo[2,3-b]pyridin-3-yl]pyridine-3-carbonitrile], the inhibition constant Ki is 10000 nM on ROCK1, 3270 nM on ROCK2 and 541 nM on MRCKβ.

As for `Nc1ccc(-c2c[nH]c3nccc(N4CCCCC4)c23)cn1` [Example E10, 5-[4-(1-piperidyl)-1H-pyrrolo[2,3-b]pyridin-3-yl]pyridin-2-amine], the Ki on ROCK1 was found to be 74.9 nM; at ROCK2, 45.7 nM; at MRCKβ, 51.8 nM.

As to `Fc1cncc(-c2c[nH]c3nccc(N4CCCCC4)c23)c1` [Example E11, 3-(5-fluoro-3-pyridyl)-4-(1-piperidyl)-1H-pyrrolo[2,3-b]pyridine], the inhibition constant (Ki) at ROCK1 came to 755 nM; at ROCK2, 374 nM; at MRCKβ, 42.3 nM.

As to `Clc1cncc(-c2c[nH]c3nccc(N4CCCCC4)c23)c1` [Example E12, 3-(5-chloro-3-pyridyl)-4-(1-piperidyl)-1H-pyrrolo[2,3-b]pyridine], the Ki at ROCK1 is 2150 nM; on ROCK2 it was 574 nM; on MRCKβ, 366 nM.

For `CNC(=O)c1cncc(-c2c[nH]c3nccc(N4CCCCC4)c23)c1` [Example E13, N-methyl-5-[4-(1-piperidyl)-1H-pyrrolo[2,3-b]pyridin-3-yl]pyridine-3-carboxamide], the Ki on ROCK1 stood at 10000 nM; on ROCK2, 1740 nM; at MRCKβ it was 378 nM.

In the case of `c1cc(-c2c[nH]c3nccc(N4CCCCC4)c23)cnn1` [Example E14, 4-(1-piperidyl)-3-pyridazin-4-yl-1H-pyrrolo[2,3-b]pyridine], the inhibition constant (Ki) on ROCK1 was 9 nM; on ROCK2, 6.5 nM; at MRCKβ it was 9.4 nM.

As to `c1cnnc(-c2c[nH]c3nccc(N4CCCCC4)c23)c1` [Example E15, 4-(1-piperidyl)-3-pyridazin-3-yl-1H-pyrrolo[2,3-b]pyridine], the Ki on ROCK1 was determined as 482 nM; on ROCK2, 362 nM; at MRCKβ it was 56.5 nM.

In the case of `c1cnc(-c2c[nH]c3nccc(N4CCCCC4)c23)cn1` [Example E16, 4-(1-piperidyl)-3-pyrazin-2-yl-1H-pyrrolo[2,3-b]pyridine], the Ki on ROCK1 turned out to be 504 nM; on ROCK2, 159 nM; on MRCKβ it was 61.8 nM.

`c1ccc2c(-c3c[nH]c4nccc(N5CCCCC5)c34)n[nH]c2c1` [Example E17, 3-(1H-indazol-3-yl)-4-(1-piperidyl)-1H-pyrrolo[2,3-b]pyridine]: the Ki on ROCK1 was determined as 10000 nM; on ROCK2, 10000 nM; at MRCKβ, 696 nM.

Turning to `Cn1nccc1-c1c[nH]c2nccc(N3CCCCC3)c12` [Example E18, 3-(2-methylpyrazol-3-yl)-4-(1-piperidyl)-1H-pyrrolo[2,3-b]pyridine], the values for the inhibition constant Ki on ROCK1, on ROCK2 and at MRCKβ were 10000 nM, 2480 nM and 818 nM, respectively.

Take `c1cc(N2CCCCC2)c2c(-c3ccc4[nH]ncc4c3)c[nH]c2n1` [Example E19, 3-(1H-indazol-5-yl)-4-(1-piperidyl)-1H-pyrrolo[2,3-b]pyridine]: the Ki on ROCK1 turned out to be 144 nM; at ROCK2, 115 nM; on MRCKβ, 213 nM.

Turning to `Cc1ncc(-c2c[nH]c3nccc(N4CCCC5(CCCCN5)C4)c23)cn1` (stereo not drawn) [Example E166, 8-[3-(2-methylpyrimidin-5-yl)-1H-pyrrolo[2,3-b]pyridin-4-yl]-1,8-diazaspiro[5.5]undecane], the Ki turned out to be 100000 nM on ROCK1 and 0.786 nM on MRCKβ.

In the case of `Cc1noc(C)c1-c1c[nH]c2nccc(N3CCCC4(CCCCN4)C3)c12` (stereo not drawn) [Example E167, 4-[4-(1,8-diazaspiro[5.5]undecan-8-yl)-1H-pyrrolo[2,3-b]pyridin-3-yl]-3,5-dimethyl-isoxazole], the inhibition constant Ki on ROCK1 was determined as 100000 nM; on MRCKβ, 108 nM.

On to `c1cc(-c2c[nH]c3nccc(N4CCC[C@]5(CCCCN5)C4)c23)cnn1` [Example E173, (6R)-8-(3-pyridazin-4-yl-1H-pyrrolo[2,3-b]pyridin-4-yl)-1,8-diazaspiro[5.5]undecane], for which the results for the Ki at ROCK1 and at MRCKβ were 294 nM and 1.18 nM, respectively.

As for `N#Cc1c[nH]c2nccc(N3CCC4(CCCN4)C3)c12` (stereo not drawn) [Example E185, 4-(1,7-diazaspiro[4.4]nonan-7-yl)-1H-pyrrolo[2,3-b]pyridine-3-carbonitrile], the Ki on ROCK1 came out at 13.6 nM; on MRCKβ, 1.92 nM.

Take `c1cc(-c2c[nH]c3nccc(O[C@@H]4CCCNC4)c23)ncn1` [Example E213, 3-pyrimidin-4-yl-4-[[(3R)-3-piperidyl]oxy]-1H-pyrrolo[2,3-b]pyridine]: the inhibition constant Ki is 3.84 nM at ROCK1 and 0.144 nM on MRCKβ.

For the molecule “N-[(3S)-1-(3-pyridazin-4-yl-1H-pyrrolo[2,3-b]pyridin-4-yl)-3-piperidyl]acetamide [Example E205]”, the inhibition constant (Ki) was 113 nM at ROCK1 and 4.43 nM at MRCKβ.
